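Assay format: 96-well plates, 48-hour exposure. GI50 = concentration required for 50% inhibition of growth.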 The source made the active and inactive calls. Rule as the data show it: active = GI50 up to about 1.1 µM and inactive = higher.
Tests used:
Test in all cases: inhibition of tumour cell growth, NCI panel, 48 h
MDA-MB-435 = test system: MDA-MB-435
OVCAR-3 = test system: OVCAR-3
OVCAR-4 = test system: OVCAR-4
OVCAR-8 = test system: OVCAR-8
SW-620 = test system: SW-620
EKVX = test system: EKVX
NCI/ADR-RES = test system: NCI/ADR-RES
HCT-116 = test system: HCT-116
COLO 205 = test system: COLO 205
LOX IMVI = test system: LOX IMVI
PC-3 = test system: PC-3
T47D = test system: T47D
U-251 = test system: U-251
TK-10 = test system: TK-10
SNB-75 = test system: SNB-75
MDA-MB-231 = test system: MDA-MB-231
MDA-N = test system: MDA-N
DU-145 = test system: DU-145
IGROV-1 = test system: IGROV-1
KM12 = test system: KM12

Row | SMILES | GI50 (MDA-MB-435) | GI50 (OVCAR-3) | GI50 (OVCAR-4) | GI50 (OVCAR-8) | GI50 (SW-620) | GI50 (EKVX) | GI50 (NCI/ADR-RES) | GI50 (HCT-116) | GI50 (COLO 205) | GI50 (LOX IMVI) | GI50 (PC-3) | GI50 (T47D) | GI50 (U-251) | GI50 (TK-10) | GI50 (SNB-75) | GI50 (MDA-MB-231) | GI50 (MDA-N) | GI50 (DU-145) | GI50 (IGROV-1) | GI50 (KM12)
1 | Nc1nc(O)c(N)c(NCCOCP(=O)(O)O)n1 | > 100 µM (inactive) | > 100 µM (inactive) | > 100 µM (inactive) | > 100 µM (inactive) | > 100 µM (inactive) | > 100 µM (inactive) | > 100 µM (inactive) | > 100 µM (inactive) | > 100 µM (inactive) | > 100 µM (inactive) | > 100 µM (inactive) | > 100 µM (inactive) | > 100 µM (inactive) | > 100 µM (inactive) | > 65.6 µM (inactive) | > 100 µM (inactive) | > 100 µM (inactive) | > 100 µM (inactive) | > 100 µM (inactive) | –
2 | NS(=O)(=O)c1ccc(NC(=O)Nc2cccc3ccccc23)cc1 | 81.8 µM (inactive) | 46.9 µM (inactive) | 42.2 µM (inactive) | 20.9 µM (inactive) | 44.8 µM (inactive) | 28.4 µM (inactive) | 46 µM (inactive) | 39.8 µM (inactive) | 86.9 µM (inactive) | 43.1 µM (inactive) | 20.2 µM (inactive) | 33.5 µM (inactive) | 18.3 µM (inactive) | 31 µM (inactive) | 22.5 µM (inactive) | 19.4 µM (inactive) | 54.8 µM (inactive) | 23.8 µM (inactive) | 53.6 µM (inactive) | > 100 µM (inactive)
3 | COc1cccc2c3cccc(OC)c3c3[nH]cnc3c12 | 2.06 µM (inactive) | 13.9 µM (inactive) | 5.45 µM (inactive) | 1.94 µM (inactive) | 1.73 µM (inactive) | 14.7 µM (inactive) | 3.09 µM (inactive) | 1.63 µM (inactive) | 16.5 µM (inactive) | 1.98 µM (inactive) | 2.03 µM (inactive) | 6.24 µM (inactive) | 1.67 µM (inactive) | 1.65 µM (inactive) | 4.3 µM (inactive) | 1.87 µM (inactive) | 1.85 µM (inactive) | 1.31 µM (inactive) | 1.76 µM (inactive) | 2.02 µM (inactive)
4 | c1ccc2c3nnc(c2c1)SCCCSc1nnc(c2ccccc12)SCCCS3 | > 100 µM (inactive) | 25.8 µM (inactive) | 23.4 µM (inactive) | 36.7 µM (inactive) | > 100 µM (inactive) | > 100 µM (inactive) | 33.4 µM (inactive) | > 100 µM (inactive) | > 100 µM (inactive) | > 100 µM (inactive) | 97.7 µM (inactive) | > 100 µM (inactive) | 76 µM (inactive) | 76.7 µM (inactive) | 25.2 µM (inactive) | 17.2 µM (inactive) | > 100 µM (inactive) | 33.7 µM (inactive) | 47.2 µM (inactive) | > 100 µM (inactive)
5 | C=C1[C@H](OCC(C)C)[C@@H](OC(=O)C(C)CC)[C@@H](O)C(C)(C)/C=C/[C@H](C)C(=O)[C@@]2(O)C[C@H](C)[C@H](O)[C@@H]2[C@H]1OC(=O)C(C)CC (some centres undefined) | 1.7 µM (inactive) | 4.94 µM (inactive) | 5.45 µM (inactive) | 9.98 µM (inactive) | 5.24 µM (inactive) | 8.83 µM (inactive) | 6.82 µM (inactive) | 4.88 µM (inactive) | 0.904 µM (active) | 4.2 µM (inactive) | 2.82 µM (inactive) | > 13.1 µM (inactive) | 5.82 µM (inactive) | 4 µM (inactive) | 1.41 µM (inactive) | 4.01 µM (inactive) | 1.26 µM (inactive) | 7.83 µM (inactive) | 7.98 µM (inactive) | 5.41 µM (inactive)
6 | O=C(Oc1ccc(OC(Oc2ccccc2)c2ccccc2)cc1)c1ccccc1 (centres undefined) | 24.6 µM (inactive) | 25.4 µM (inactive) | 15 µM (inactive) | > 31.6 µM (inactive) | > 31.6 µM (inactive) | 29.7 µM (inactive) | 27.9 µM (inactive) | 16.1 µM (inactive) | > 31.6 µM (inactive) | 22.1 µM (inactive) | 25.6 µM (inactive) | 50 µM (inactive) | > 75.7 µM (inactive) | 31.3 µM (inactive) | 27.5 µM (inactive) | 28 µM (inactive) | 14.4 µM (inactive) | > 31.6 µM (inactive) | 15.2 µM (inactive) | 18.7 µM (inactive)
7 | N[C@H]1CCCC[C@@H]1N1C(=O)c2ccccc2C1(O)c1ccc(Cl)cc1 (some centres undefined) | 6.5 µM (inactive) | 8.73 µM (inactive) | 11.2 µM (inactive) | 15.4 µM (inactive) | 6.3 µM (inactive) | 15.3 µM (inactive) | 12.7 µM (inactive) | 9.79 µM (inactive) | 3.41 µM (inactive) | 9.38 µM (inactive) | 11.4 µM (inactive) | 4.99 µM (inactive) | 12.6 µM (inactive) | 12.9 µM (inactive) | 1.31 µM (inactive) | 12.9 µM (inactive) | 11.8 µM (inactive) | 13.2 µM (inactive) | 12.6 µM (inactive) | 2.11 µM (inactive)
8 | O=C(NCc1cccnc1)NCc1cccnc1 | > 100 µM (inactive) | > 100 µM (inactive) | > 100 µM (inactive) | > 100 µM (inactive) | > 100 µM (inactive) | > 100 µM (inactive) | > 100 µM (inactive) | > 100 µM (inactive) | > 100 µM (inactive) | > 100 µM (inactive) | > 100 µM (inactive) | > 100 µM (inactive) | > 100 µM (inactive) | > 100 µM (inactive) | > 100 µM (inactive) | > 100 µM (inactive) | > 100 µM (inactive) | > 100 µM (inactive) | > 100 µM (inactive) | > 100 µM (inactive)
9 | COc1ccc(C(CC(C)=O)c2c(O)c3ccccc3oc2=O)cc1OC (centres undefined) | > 100 µM (inactive) | > 100 µM (inactive) | > 100 µM (inactive) | > 100 µM (inactive) | > 100 µM (inactive) | > 100 µM (inactive) | > 100 µM (inactive) | > 100 µM (inactive) | > 100 µM (inactive) | > 100 µM (inactive) | > 100 µM (inactive) | > 100 µM (inactive) | > 100 µM (inactive) | > 100 µM (inactive) | > 100 µM (inactive) | > 100 µM (inactive) | > 100 µM (inactive) | > 100 µM (inactive) | > 100 µM (inactive) | > 100 µM (inactive)
10 | N#Cc1c(Cl)nc2ccccc2c1N=[N+]=[N-] | 7.38 µM (inactive) | 1.78 µM (inactive) | 1.91 µM (inactive) | 3.02 µM (inactive) | 1.73 µM (inactive) | 2.25 µM (inactive) | 9.33 µM (inactive) | 1.66 µM (inactive) | 1.88 µM (inactive) | 1.67 µM (inactive) | 2.65 µM (inactive) | 2.47 µM (inactive) | 5.19 µM (inactive) | 4.82 µM (inactive) | 8.67 µM (inactive) | 1.89 µM (inactive) | 13.3 µM (inactive) | 14.9 µM (inactive) | 1.95 µM (inactive) | 6.4 µM (inactive)
11 | Nc1c(-c2nc3ccccc3s2)c2ccc([N+](=O)[O-])cc2c(=O)n1-c1cccc(C(=O)O)c1 | 35.6 µM (inactive) | – | 31.9 µM (inactive) | 27.7 µM (inactive) | 29.1 µM (inactive) | – | 33.1 µM (inactive) | 21.2 µM (inactive) | 63.5 µM (inactive) | 31.8 µM (inactive) | 29.9 µM (inactive) | 21 µM (inactive) | 23.4 µM (inactive) | 19 µM (inactive) | 30.8 µM (inactive) | 17.9 µM (inactive) | 45.1 µM (inactive) | 23.3 µM (inactive) | – | 40.6 µM (inactive)
12 | O=[N+]([O-])c1ccc(C(c2c[nH]c3ccccc23)c2c[nH]c3ccccc23)cc1 | 13.3 µM (inactive) | 1.94 µM (inactive) | 12 µM (inactive) | 14.7 µM (inactive) | 12.4 µM (inactive) | 19.4 µM (inactive) | 11 µM (inactive) | – | 8.13 µM (inactive) | 11.1 µM (inactive) | 12.3 µM (inactive) | 0.653 µM (active) | 11.8 µM (inactive) | 12.7 µM (inactive) | 4.8 µM (inactive) | 12.4 µM (inactive) | 11.6 µM (inactive) | 4.47 µM (inactive) | – | 6.24 µM (inactive)
13 | Cc1ccc(S(=O)(=O)NNC(=O)Nc2ccc([N+](=O)[O-])cc2)cc1 | 55 µM (inactive) | 19.6 µM (inactive) | 26.2 µM (inactive) | 17.4 µM (inactive) | 33 µM (inactive) | > 100 µM (inactive) | 27.4 µM (inactive) | 26.9 µM (inactive) | 42.3 µM (inactive) | 52.4 µM (inactive) | 26.1 µM (inactive) | 2.65 µM (inactive) | 31 µM (inactive) | 67.3 µM (inactive) | 72.9 µM (inactive) | 22.1 µM (inactive) | > 100 µM (inactive) | 83.2 µM (inactive) | 35.2 µM (inactive) | 23.8 µM (inactive)
14 | COC(=O)[C@H](Cc1c[nH]c2ccccc12)NC(=O)c1ccc(CNC(=O)/C(C)=C/c2ccccc2)cc1 | 36.4 µM (inactive) | 28.6 µM (inactive) | 30.3 µM (inactive) | 66.7 µM (inactive) | > 100 µM (inactive) | 57.3 µM (inactive) | 52.8 µM (inactive) | 71.4 µM (inactive) | 22.8 µM (inactive) | 44.3 µM (inactive) | 20.7 µM (inactive) | 3.7 µM (inactive) | 80 µM (inactive) | 29.6 µM (inactive) | 0.497 µM (active) | 17.8 µM (inactive) | 19.8 µM (inactive) | 32.5 µM (inactive) | 32.1 µM (inactive) | 87.7 µM (inactive)

Reference: ChEMBL document CHEMBL1201862, “PubChem BioAssay data set” (2004)
